Reference: US9145351B2, “Azole derivatives, methods for producing the same, intermediate thereof, agro-horticultural agents” (KUREHA CORPORATION, priority 2009, dated 2015)

How the values were obtained:
Type in all cases: cell-based
Ustilago nuda = test: Plate medium fungicidal assay, barley loose smut U.n (Experimental Example 5)
Method: (§1) In this Experimental Example, the fungicidal effects of the inventive compounds on various phytopathogenic fungi for plants and hazardous microorganism for industrial materials were examined by the methods described below. Each inventive compound was dissolved in 2 ml of dimethyl sulfoxide. 0.6 ml of this solution was added to 60 nil of a PDA medium (potato dextrose agar medium) at about 60 degrees C., which was mixed thoroughly in a 100-ml conical flask, and poured into a dish, where it was solidified, thereby obtaining a plate medium containing the inventive compound at 50 mg/L and 5 mg/L. On the other hand, a subject microorganism previously cultured on a plate medium was cut out using a cork borer whose diameter was 4 mm, and inoculated to the test compound-containing plate medium described above. […] The growth degree of the microorganism on the test compound-containing plate medium thus observed was compared with the growth degree of the microorganism in the untreated group, and % mycelial growth inhibition was calculated by the following equation. R=100(dc−dt)/dc wherein R=% mycelial extension inhibition, dc=flora diameter in untreated plate, dt=flora diameter in treated plate. The results obtained as described above were evaluated as one of the 5 grades according to the following criteria. […] Barley loose smut (Ustilago nuda) U.n

Botritis cinerea = test: Plate medium fungicidal assay, gray mold B.c (Experimental Example 5)
Method: as §1, with “Gray mold (Botritis cinerea) B.c” for “Barley loose smut (Ustilago nuda) U.n”

Fusarium oxysporum = test: Plate medium fungicidal assay, cucumber fusarium wilt F.c (Experimental Example 5)
Method: as §1, with “Cucumber fusarium wilt (Fusarium oxysporum) F.c” for “Barley loose smut (Ustilago nuda) U.n”

Alternaria alternata = test: Plate medium fungicidal assay, Alternaria blotch A.m (Experimental Example 5)
Method: as §1, with “Alternaria blotch (Alternaria alternata) A.m” for “Barley loose smut (Ustilago nuda) U.n”

Fusarium graminearum = test: microbe, parasite or virus in culture
[1] = plate medium containing compound at 5 mg/L
[2] = plate medium containing compound at 50 mg/L

Row | Structure (SMILES) | Growth inhibition grade, U.n (Ustilago nuda; [1]) | Growth inhibition grade, U.n (Ustilago nuda; [2]) | Growth inhibition grade, B.c (Botritis cinerea; [1]) | Growth inhibition grade, B.c (Botritis cinerea; [2]) | Growth inhibition grade, F.c (Fusarium oxysporum; [1]) | Growth inhibition grade, F.c (Fusarium oxysporum; [2]) | Growth inhibition grade, A.m (Alternaria alternata; [1]) | Growth inhibition grade, A.m (Alternaria alternata; [2]) | Growth inhibition grade, F.g (Fusarium graminearum; [1]) | Growth inhibition grade, F.g (Fusarium graminearum; [2]) | Growth inhibition grade, U.n (Ustilago nuda; plate medium, 5 mg/L) | Growth inhibition grade, U.n (Ustilago nuda; plate medium, 50 mg/L) | Growth inhibition grade, B.c (Botritis cinerea; plate medium, 5 mg/L) | Growth inhibition grade, B.c (Botritis cinerea; plate medium, 50 mg/L) | Growth inhibition grade, F.c (Fusarium oxysporum; plate medium, 5 mg/L) | Growth inhibition grade, F.c (Fusarium oxysporum; plate medium, 50 mg/L) | Growth inhibition grade, A.m (Alternaria alternata; plate medium, 5 mg/L) | Growth inhibition grade, A.m (Alternaria alternata; plate medium, 50 mg/L) | Growth inhibition grade, F.g (Fusarium graminearum; plate medium, 5 mg/L) | Growth inhibition grade, F.g (Fusarium graminearum; plate medium, 50 mg/L)
1 | C[C@@]1(CCl)CC[C@@H](Cc2ccc(Cl)cc2)[C@]1(O)Cn1cncn1 (racemic) [Compound I-101] | 5 (% Mycerial growth inhibition of 80% or higher) | 5 (% Mycerial growth inhibition of 80% or higher) | 5 (% Mycerial growth inhibition of 80% or higher) | 5 (% Mycerial growth inhibition of 80% or higher) | 5 (% Mycerial growth inhibition of 80% or higher) | 5 (% Mycerial growth inhibition of 80% or higher) | 5 (% Mycerial growth inhibition of 80% or higher) | 5 (% Mycerial growth inhibition of 80% or higher) | 5 (% Mycerial growth inhibition of 80% or higher) | 5 (% Mycerial growth inhibition of 80% or higher) | – | – | – | – | – | – | – | – | – | –
2 | C[C@]1(CCl)CC[C@H](Cc2cccc(Cl)c2)[C@]1(O)Cn1cncn1 (relative stereo) [Compound I-374] | – | – | – | – | – | – | – | – | – | – | 4 (% Mycerial growth inhibition of less than 80 to 60% or higher) | 5 (% Mycerial growth inhibition of 80% or higher) | 5 (% Mycerial growth inhibition of 80% or higher) | 5 (% Mycerial growth inhibition of 80% or higher) | 5 (% Mycerial growth inhibition of 80% or higher) | 5 (% Mycerial growth inhibition of 80% or higher) | 4 (% Mycerial growth inhibition of less than 80 to 60% or higher) | 5 (% Mycerial growth inhibition of 80% or higher) | 5 (% Mycerial growth inhibition of 80% or higher) | 5 (% Mycerial growth inhibition of 80% or higher)
3 | C[C@@]1(CCl)CC[C@@H](Cc2cccc(Cl)c2)[C@]1(O)Cn1cncn1 (relative stereo) [Compound I-174] | – | – | – | – | – | – | – | – | – | – | 4 (% Mycerial growth inhibition of less than 80 to 60% or higher) | 5 (% Mycerial growth inhibition of 80% or higher) | 5 (% Mycerial growth inhibition of 80% or higher) | 5 (% Mycerial growth inhibition of 80% or higher) | 5 (% Mycerial growth inhibition of 80% or higher) | 5 (% Mycerial growth inhibition of 80% or higher) | 5 (% Mycerial growth inhibition of 80% or higher) | 5 (% Mycerial growth inhibition of 80% or higher) | 5 (% Mycerial growth inhibition of 80% or higher) | 5 (% Mycerial growth inhibition of 80% or higher)
4 | C[C@]1(CCl)CC[C@@H](Cc2ccc(OC(F)(F)F)cc2)[C@]1(O)Cn1cncn1 (relative stereo) [Compound I-79] | 5 (% Mycerial growth inhibition of 80% or higher) | 5 (% Mycerial growth inhibition of 80% or higher) | 5 (% Mycerial growth inhibition of 80% or higher) | 5 (% Mycerial growth inhibition of 80% or higher) | 5 (% Mycerial growth inhibition of 80% or higher) | 5 (% Mycerial growth inhibition of 80% or higher) | 5 (% Mycerial growth inhibition of 80% or higher) | 5 (% Mycerial growth inhibition of 80% or higher) | 5 (% Mycerial growth inhibition of 80% or higher) | 5 (% Mycerial growth inhibition of 80% or higher) | – | – | – | – | – | – | – | – | – | –
5 | C[C@]1(CCl)CC[C@@H](Cc2ccc(F)cc2F)[C@]1(O)Cn1cncn1 (relative stereo) [Compound I-88] | 5 (% Mycerial growth inhibition of 80% or higher) | 5 (% Mycerial growth inhibition of 80% or higher) | 5 (% Mycerial growth inhibition of 80% or higher) | 5 (% Mycerial growth inhibition of 80% or higher) | 5 (% Mycerial growth inhibition of 80% or higher) | 5 (% Mycerial growth inhibition of 80% or higher) | 4 (% Mycerial growth inhibition of less than 80 to 60% or higher) | 5 (% Mycerial growth inhibition of 80% or higher) | 5 (% Mycerial growth inhibition of 80% or higher) | 5 (% Mycerial growth inhibition of 80% or higher) | – | – | – | – | – | – | – | – | – | –
6 | CC1(C)CCC(Cc2ccc(Cl)cc2)C1(O)Cn1ncnc1S (racemic) [compound (2)] | – | – | – | – | – | – | – | – | – | – | 1 (% Mycerial growth inhibition of less than 20%) | 3 (% Mycelial growth inhibition of less than 60 to 40% or higher) | 2 (% Mycerial growth inhibition of less than 40 to 20% or higher) | 5 (% Mycerial growth inhibition of 80% or higher) | 3 (% Mycelial growth inhibition of less than 60 to 40% or higher) | 4 (% Mycerial growth inhibition of less than 80 to 60% or higher) | 4 (% Mycerial growth inhibition of less than 80 to 60% or higher) | 4 (% Mycerial growth inhibition of less than 80 to 60% or higher) | 3 (% Mycelial growth inhibition of less than 60 to 40% or higher) | 5 (% Mycerial growth inhibition of 80% or higher)
7 | CC[C@]1(CCl)CC[C@@H](Cc2ccccc2)[C@]1(O)Cn1cncn1 (relative stereo) [Compound I-97] | 5 (% Mycerial growth inhibition of 80% or higher) | 5 (% Mycerial growth inhibition of 80% or higher) | 5 (% Mycerial growth inhibition of 80% or higher) | 5 (% Mycerial growth inhibition of 80% or higher) | 5 (% Mycerial growth inhibition of 80% or higher) | 5 (% Mycerial growth inhibition of 80% or higher) | 4 (% Mycerial growth inhibition of less than 80 to 60% or higher) | 5 (% Mycerial growth inhibition of 80% or higher) | 5 (% Mycerial growth inhibition of 80% or higher) | 5 (% Mycerial growth inhibition of 80% or higher) | – | – | – | – | – | – | – | – | – | –
